The source of these data is US20230382894A1, “CCR4 ANTAGONISTS” (CHEMOCENTRYX, INC., priority 2022, published 2023).

Each structure is given as a SMILES string. Bounds are passed on as bounds.

One experiment addresses T1, CCR4 (Homo sapiens, UniProt P51679).
T1 construct: CEM Cells Endogenous Express CCR4; endogenous in cells; host or cells: CEM cells
T1 sequence (P51679 1-360): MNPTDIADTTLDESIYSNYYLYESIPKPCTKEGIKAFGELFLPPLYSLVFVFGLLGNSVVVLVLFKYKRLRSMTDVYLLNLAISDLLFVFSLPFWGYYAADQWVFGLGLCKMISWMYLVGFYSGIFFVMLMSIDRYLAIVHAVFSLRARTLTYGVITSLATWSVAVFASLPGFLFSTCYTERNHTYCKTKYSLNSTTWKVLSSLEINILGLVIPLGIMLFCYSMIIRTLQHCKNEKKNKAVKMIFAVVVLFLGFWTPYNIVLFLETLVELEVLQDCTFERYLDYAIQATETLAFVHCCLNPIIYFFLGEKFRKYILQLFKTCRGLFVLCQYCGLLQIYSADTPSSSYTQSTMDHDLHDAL
Briefly: CEM cell chemotaxis (migration) assay to CCL22 (MDC) in HBSS buffer with 0.1% BSA. As to conditions: CEM cells in HBSS with 0.1% BSA; recombinant human CCL22 0.1 nM; 37° C. 60 minutes. The experiment is classed as cell-based. From the text: (§1) CEM Cells Endogenous Express CCR4
(§2) A chemotaxis assay can be used to determine the efficacy of potential receptor antagonists at blocking the migration mediated through chemokine receptors, such as CCR4. This assay is routinely performed using the ChemoTX® microchamber system with a 5 μm pore-sized polycarbonate membrane.
(§3) HBSS: CEM Cells are collected by centrifugation at 400×g at room temperature, then suspended at 5 million/ml in Hanks' Balanced Salt Solution (HBSS) buffer with 0.1% BSA. The compound being tested is serially diluted from a maximum final concentration of 10 μM (or an equivalent volume of its solvent (DMSO)) and is then added to the cell/buffer mixture. Separately, recombinant human CCL22 (MDC) at its EC50 concentration (0.1 nM) is placed in the lower wells of the ChemoTX® plate. The 5-μm (pore size) polycarbonate membrane was placed onto the plate, and 20 μL of the cell/compound mixture is transferred onto each well of the membrane. The plates are incubated at 37° C. for 60 minutes, after which the polycarbonate membranes are removed and 5 μl of the DNA-intercalating dye CyQUANT (Invitrogen, Carlsbad, CA) is added to the lower wells. The amount of fluorescence, corresponding to the number of migrated cells, is measured using a Spectrafluor Plus plate reader (TECAN, San Jose, CA).
Turning to `C[C@@H](Nc1nc(N2CCN(C(=O)[C@H]3CCCN3)CC2)ncc1C(F)(F)F)c1ccc(Cl)cc1Cl` [Example 1.007], the IC50 (usually the concentration that gives 50% inhibition) was under 100 nM.

Consider `C[C@@H](Nc1nc(N2CCC(C3CCCN(CCO)C3)CC2)ncc1Cl)c1ccc(Cl)cc1Cl` (some centres unmarked) [Example 1.047], for which the 50% inhibitory concentration (IC50) was under 100 nM.

Turning to `C[C@@H](Nc1nc(N2CCN(C(=O)[C@H]3CCC(=O)N3)CC2)ncc1Cl)c1c(F)cc(Cl)cc1Cl` [Example 1.250], the IC50 is under 100 nM.

Another experiment deals with T1, CCR4. Briefly: CEM cell chemotaxis (migration) assay to CCL22 (MDC) in 100% Fetal Bovine Serum (FBS). The following applies: CEM cells in 100% FBS with 1% HEPEs; recombinant human CCL22 0.1 nM; 37° C. 60 minutes. The experiment is classed as cell-based.
Source text: as §1, §2
as §3, with “FBS:” for “HBSS:”, “100% Fetal Bovine Serum (FBS)” for “Hanks' Balanced Salt Solution (HBSS) buffer”, “1% HEPEs.” for “0.1% BSA.”
Turning to `C[C@@H](Nc1nc(N2CCN(C(=O)[C@H]3CCCN3)CC2)ncc1C(F)(F)F)c1ccc(Cl)cc1Cl` [Example 1.007], the half-inhibitory concentration (IC50) is under 100 nM.

On to `C[C@@H](Nc1nc(N2CCC(C3CCCN(CCO)C3)CC2)ncc1Cl)c1ccc(Cl)cc1Cl` (some centres unmarked) [Example 1.047], for which the concentration for half-maximal inhibition (IC50) is under 100 nM.

As for `COc1cnc(N2CCN(C(=O)[C@H]3CCN(C)C3)CC2)nc1N[C@H](C)c1ccc(Cl)cc1Cl` [Example 1.189], the IC50 is under 100 nM.

Turning to `COc1cnc(N2CCN(C(=O)[C@H]3CN(C)C(=O)N3)CC2)nc1N[C@H](C)c1ccc(Cl)cc1Cl` [Example 1.096], the half-inhibitory concentration (IC50) is under 100 nM.

As for `C[C@@H](Nc1nc(N2CCN(C(=O)C3CCCC(=O)N3)CC2)ncc1Cl)c1ccc(Cl)cc1Cl` (some centres unmarked) [Example 1.240], the IC50 is under 100 nM.

In the case of `C[C@@H](Nc1nc(N2CCN(C(=O)[C@H]3CN(C)C(=O)N3)CC2)ncc1F)c1ccc(Cl)cc1Cl` [Example 1.103], the IC50 was under 100 nM.

For `C[C@@H](Nc1nc(N2CCC(O[C@H]3CCN(C)C3)CC2)ncc1Cl)c1ccc(Cl)cc1Cl` [Example 1.178], the IC50 is under 100 nM.

With `C[C@@H](Nc1nc(N2CC[C@@H](NC(=O)[C@H]3CCCN3)[C@H](O)C2)ncc1OC(F)F)c1ccc(Cl)cc1Cl` [Example 1.118], the 50% inhibitory concentration (IC50) is under 100 nM.

Consider `C[C@@H](Nc1nc(N2CCN(C(=O)[C@H]3CCCN3)CC2)ncc1OC(F)F)c1ccc(Cl)cc1Cl` [Example 1.172], for which the concentration for half-maximal inhibition (IC50) is under 100 nM.

Turning to `C[C@@H](Nc1nc(N2CC[C@H](NC(=O)[C@H]3CCC(=O)N3)[C@@H](O)C2)ncc1Cl)c1ccc(Cl)cc1Cl` [Example 1.093], the IC50 was 100 to 1000 nM.

Regarding `COc1cnc(N2CCC(N(C)C(=O)[C@H]3CCCN3)CC2)nc1N[C@H](C)c1ccc(Cl)cc1Cl` [Example 1.170], the half-maximal inhibitory concentration (IC50) was under 100 nM.

As for `C[C@@H](Nc1nc(N2CCN(C(=O)[C@H]3CCCN3)CC2)ncc1O)c1ccc(Cl)cc1Cl` [Example 1.167], the half-maximal inhibitory concentration (IC50) is under 100 nM.

For the compound `C[C@@H](Nc1nc(N2CCN(C(=O)[C@H]3CCCN3)CC2)ncc1N)c1ccc(Cl)cc1Cl` [Example 1.094], the IC50 is under 100 nM.

Consider `CC(C)Oc1cnc(N2CCN(C(=O)C[C@@H]3CCCN3)CC2)nc1N[C@H](C)c1ccc(Cl)cc1Cl` [Example 1.161], for which the 50% inhibitory concentration (IC50) was under 100 nM.

Take `C[C@@H](Nc1nc(N2CCN(C(=O)C[C@@H]3CCCN3)CC2)ncc1Cl)c1ccc(Cl)cc1Cl` [Example 1.180]: the IC50 is under 100 nM.

In the case of `C[C@@H](Nc1nc(N2CCN(C(=O)C[C@H]3CCC(=O)N3)CC2)ncc1Cl)c1ccc(Cl)cc1Cl` [Example 1.234], the 50% inhibitory concentration (IC50) lay in the range of 100 to 1000 nM.

On to `C[C@@H](Nc1nc(N2CCN(C(=O)C3(C)CCN(C)C3)CC2)ncc1Cl)c1ccc(Cl)cc1Cl` (some centres unmarked) [Example 1.231], for which the concentration for half-maximal inhibition (IC50) is under 100 nM.

Turning to `C[C@@H](Nc1nc(N2CCC(O[C@@H]3CNC[C@H]3F)CC2)ncc1Cl)c1ccc(Cl)cc1Cl` [Example 1.186], the IC50 was under 100 nM.

On to `C[C@H]1CC[C@H](C(=O)N[C@H]2CCN(c3ncc(Cl)c(N[C@H](C)c4ccc(Cl)cc4Cl)n3)C[C@@H]2F)N1` [Example 1.087], for which the IC50 is under 100 nM.

Turning to `C[C@@H](Nc1nc(N2CCC(O[C@@H]3CNC[C@@H]3F)CC2)ncc1Cl)c1ccc(Cl)cc1Cl` [Example 1.190], the IC50 is under 100 nM.

`C[C@@H](Nc1nc(N2CC[C@H](NC(=O)[C@H]3CCCN3)[C@@H](O)C2)ncc1F)c1ccc(Cl)cc1Cl` [Example 1.107]: the IC50 was under 100 nM.

As to `C[C@@H](Nc1nc(C2CCN(C(=O)[C@H]3CCCN3)CC2)ncc1Cl)c1ccc(Cl)cc1Cl` [Example 1.159], the IC50 was under 100 nM.

For `C[C@@H](Nc1nc(N2CCN(C(=O)[C@H]3CCCN3)CC2)ncc1OCC(F)(F)F)c1ccc(Cl)cc1Cl` [Example 1.108], the IC50 was under 100 nM.

`C[C@@H](Nc1nc(N2CCN(C(=O)[C@H]3CCC(=O)N3)CC2)nc(N)c1Cl)c1ccc(Cl)cc1Cl` [Example 1.084]: the IC50 is under 100 nM.

In the case of `C[C@@H](Nc1nc(N2CCN(C(=O)C(N)(CO)CCl)CC2)ncc1Cl)c1ccc(Cl)cc1Cl` (some centres unmarked) [Example 1.126], the IC50 is 100 to 1000 nM.

For `C[C@@H](Nc1nc(N2CCN(C(=O)[C@H]3CCC(=O)N3C)CC2)ncc1Cl)c1ccc(Cl)cc1Cl` [Example 1.239], the half-maximal inhibitory concentration (IC50) was under 100 nM.

For `C[C@@H](Nc1nc(N2CCN(C(=O)[C@H]3CCCC(=O)N3)CC2)ncc1Cl)c1ccc(Cl)cc1Cl` [Example 1.238], the 50% inhibitory concentration (IC50) is under 100 nM.

Consider `C[C@@H](Nc1nc(N2CCC([C@@H]3CCCN(CCC(=O)O)C3)CC2)ncc1Cl)c1ccc(Cl)cc1Cl` [Example 1.220], for which the IC50 was under 100 nM.

As to `COc1cnc(N2CCN(C(=O)C[C@H]3CCCN3)CC2)nc1N[C@H](C)c1ccc(Cl)cc1Cl` [Example 1.164], the 50% inhibitory concentration (IC50) was under 100 nM.

For the compound `COc1cnc(N2CCN(C(=O)[C@H]3CCCN3)CC2)nc1N[C@H](C)c1ccc(Cl)cc1Cl` [Example 1.197], the IC50 is under 100 nM.

As for `COc1cnc(N2CCC(C3CCCN(CCO)C3)CC2)nc1N[C@H](C)c1ccc(Cl)cc1Cl` (some centres unmarked) [Example 1.158], the IC50 was under 100 nM.

Regarding `Cc1nc(N2CCN(C(=O)[C@H]3CN(C)C(=O)N3)CC2)nc(N[C@H](C)c2ccc(Cl)cc2Cl)c1Cl` [Example 1.097], the half-maximal inhibitory concentration (IC50) was under 100 nM.

Consider `C[C@@H](Nc1nc(N2CCN(C(=O)[C@H]3CCC(=O)N3)[C@H](CO)C2)ncc1Cl)c1ccc(Cl)cc1Cl` [Example 1.109], for which the 50% inhibitory concentration (IC50) was under 100 nM.

On to `C[C@@H](Nc1nc(N2CCN(C(=O)[C@H]3CCN(C)C3)CC2)ncc1Cl)c1ccc(Cl)cc1Cl` [Example 1.143], for which the IC50 was under 100 nM.

Take `C[C@@H](Nc1nc(N2CCN(C(=O)[C@H]3CCC(=O)N3)CC2)ncc1F)c1ccc(Cl)cc1Cl` [Example 1.117]: the 50% inhibitory concentration (IC50) is under 100 nM.

As for `C[C@H](Nc1nc(N2CCN(C(=O)[C@H]3CCC(=O)N3)CC2)ncc1Cl)c1ncc(Cl)cc1Cl` [Example 1.255], the IC50 was under 100 nM.

In the case of `COc1cnc(N2CCN(C(=O)[C@H]3CC[C@@H](C)N3)CC2)nc1N[C@H](C)c1ccc(Cl)cc1Cl` [Example 1.173], the IC50 is under 100 nM.

`COc1cnc(N2CCN(C(=O)C[C@@H]3CCCN3)CC2)nc1N[C@H](C)c1ccc(Cl)cc1Cl` [Example 1.177]: the half-inhibitory concentration (IC50) is under 100 nM.

For the compound `C[C@@H](Nc1nc(N2CC[C@H](NC(=O)[C@H]3CCC(=O)N3)[C@@H](F)C2)ncc1Cl)c1ccc(Cl)cc1Cl` [Example 1.106], the IC50 was 100 to 1000 nM.

With `C[C@@H](Nc1nc(C2=CCN(C(=O)[C@H]3CCC(=O)N3)CC2)ncc1Cl)c1ccc(Cl)cc1Cl` [Example 1.162], the IC50 is under 100 nM.

With `C[C@@H](Nc1nc(N2CCN(C(=O)[C@H]3CCCNC3)CC2)ncc1Cl)c1ccc(Cl)cc1Cl` [Example 1.201], the 50% inhibitory concentration (IC50) was under 100 nM.

In the case of `COc1cnc(N2CCN(C(=O)[C@H]3CCCN3C)CC2)nc1N[C@H](C)c1ccc(Cl)cc1Cl` [Example 1.156], the concentration for half-maximal inhibition (IC50) was under 100 nM.

On to `C[C@@H](Nc1nc(N2CCN(C(=O)[C@H]3COC(=O)N3)CC2)ncc1Cl)c1ccc(Cl)cc1Cl` [Example 1.122], for which the IC50 was under 100 nM.

Take `C[C@@H](Nc1nc(N2CCC(N(CCC(=O)O)C(=O)[C@H]3CCCN3)CC2)ncc1Cl)c1ccc(Cl)cc1Cl` [Example 1.141]: the half-inhibitory concentration (IC50) was over 1000 nM.

Consider `C[C@H]1CC[C@H](C(=O)N2CCN(c3ncc(Cl)c(N[C@H](C)c4ccc(Cl)cc4Cl)n3)CC2)N1` [Example 1.204], for which the IC50 was under 100 nM.

Take `COc1cnc(N2CCN(C(=O)C[C@@H]3CCCN3C)CC2)nc1N[C@H](C)c1ccc(Cl)cc1Cl` [Example 1.168]: the IC50 was under 100 nM.

Turning to `C[C@@H](Nc1nc(N2CCN(C(=O)[C@@H]3CCC(=O)N3)CC2)ncc1Cl)c1ccc(Cl)cc1Cl` [Example 1.144], the concentration for half-maximal inhibition (IC50) lay in the range of 100 to 1000 nM.
